Numbered stars: 1 amine (or outer) side, 2 acyl side, 3 side chain; on linkers, the order of the positions; unused ones are H or OH. Bridge positions count the residues as written; N and C are the ends. Square brackets hold non-standard residues; d marks the D form. Peptide text beside a SMILES is read from it. * marks the point of attachment. Ala(imidazo(1,2-a)pyr3yl) = N[C@@H](Cc1cnc2ccccn12)C(=O)O; Trp(1-CH2COOH) = N[C@@H](Cc1cn(CC(=O)O)c2ccccc12)C(=O)O; NMePhe(4-COOH) = CN[C@@H](Cc1ccc(C(=O)O)cc1)C(=O)O; X1 = O=C([C@H](Cc1cccc(C(=O)[*:3])c1)N[*:1])[*:2]; X7 = CN([C@@H](Cc1cccc(C(=O)O)c1)C(=O)[*:2])[*:1]; X2 = O=C([C@H](Cc1cn(CCO)c2ccccc12)N[*:1])[*:2]; Phe(3-COOH) = N[C@@H](Cc1cccc(C(=O)O)c1)C(=O)O; Tyr(2,6-F2) = N[C@@H](Cc1c(F)cc(O)cc1F)C(=O)O; NMePhe(3-Cl) = CN[C@@H](Cc1cccc(Cl)c1)C(=O)O; Trp(1-Me) = Cn1cc(C[C@H](N)C(=O)O)c2ccccc21; 3Pal(6-NH2) = Nc1ccc(C[C@H](N)C(=O)O)cn1; NMeW = CN[C@@H](Cc1c[nH]c2ccccc12)C(=O)O; Lys(N3) = [N-]=[N+]=NCCCC[C@H](N)C(=O)O; NMeY = CN[C@@H](Cc1ccc(O)cc1)C(=O)O; Nva(3-Et) = CCC(CC)[C@H](N)C(=O)O; NMeF = CN[C@@H](Cc1ccccc1)C(=O)O; 4Pal = N[C@@H](Cc1ccncc1)C(=O)O; PEG4 = NCCOCCOCCOCCOCCC(=O)O; Carboxymethyl = O=C(O)C*
How the values were obtained:
Type in all cases: binding
[1] = target: T1, human transferrin receptor (hTfR) (Homo sapiens, UniProt P02786); test: Evaluation of pH dependence (ratio of SPR koff or KD at pH 6.0 to pH 7.4); details: ratio of koff at pH 6.0 to pH 7.4
Method: The ratio of the calculated koff or KD values under pH 6.0 conditions to those under pH 7.4 conditions was calculated to check pH dependency.

[2] = target: T1, human transferrin receptor (hTfR); test: SPR measurement under pH 7.4 conditions (Biacore T200, CM3 chip, hTfR captured by His Tag antibody); details: SPR, pH 7.4; Table 1-3-2-2; read-out: hTfR SPR pH7.4 KD
[3] = target: T1, human transferrin receptor (hTfR); test: SPR measurement under pH 6.0 conditions (Biacore T200, NTA chip, immobilized hTfR); details: SPR, pH 6.0; Table 1-3-2-2; read-out: hTfR SPR pH6.0 KD

T1 sequence (P02786 whole entry): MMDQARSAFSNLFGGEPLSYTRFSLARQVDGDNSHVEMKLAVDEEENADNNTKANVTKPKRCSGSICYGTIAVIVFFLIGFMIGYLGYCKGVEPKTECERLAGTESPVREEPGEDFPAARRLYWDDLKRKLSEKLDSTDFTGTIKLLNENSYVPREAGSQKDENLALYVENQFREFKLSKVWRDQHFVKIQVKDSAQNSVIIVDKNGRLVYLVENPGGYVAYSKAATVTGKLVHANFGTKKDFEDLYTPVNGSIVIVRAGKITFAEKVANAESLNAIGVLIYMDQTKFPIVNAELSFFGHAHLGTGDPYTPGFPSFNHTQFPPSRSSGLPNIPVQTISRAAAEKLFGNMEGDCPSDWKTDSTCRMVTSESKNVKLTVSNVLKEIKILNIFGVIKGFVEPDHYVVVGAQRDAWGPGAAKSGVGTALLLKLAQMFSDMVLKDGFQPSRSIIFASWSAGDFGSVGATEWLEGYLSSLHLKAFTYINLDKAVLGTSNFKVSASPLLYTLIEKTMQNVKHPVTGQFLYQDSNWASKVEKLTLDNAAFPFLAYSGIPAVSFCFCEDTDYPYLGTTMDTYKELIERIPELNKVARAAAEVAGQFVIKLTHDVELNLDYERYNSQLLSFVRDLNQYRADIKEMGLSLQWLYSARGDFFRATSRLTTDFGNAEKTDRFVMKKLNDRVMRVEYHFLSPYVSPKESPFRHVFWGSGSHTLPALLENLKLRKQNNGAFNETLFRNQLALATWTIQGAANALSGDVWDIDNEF

Row | Structure (SMILES) | dependency koff pH6.0/7.4 [1] | Kd [2] [µM] | Kd [3] [µM]
1 | CC[C@H](C)[C@@H]1NC(=O)[C@H](Cc2ccc(OCC(=O)O)cc2)NC(=O)[C@H](Cc2ccc(O)cc2)NC(=O)[C@H](CC(N)=O)NC(=O)[C@H](Cc2cn(CCO)c3ccccc23)NC(=O)[C@H](C(C)C)NC(=O)[C@H](Cc2cccc(Cl)c2)N(C)C(=O)[C@H]([C@@H](C)O)NC(=O)[C@H](C)NC(=O)CSC[C@@H](C(=O)NCCOCCOCCOCCOCCC(N)=O)NC(=O)[C@H](Cc2ccc(O)cc2)N(C)C(=O)[C@H](Cc2cccc(C(=O)O)c2)NC(=O)[C@H](CCCNC(=N)N)NC(=O)[C@H](CCC(N)=O)NC(=O)[C@H]([C@@H](C)CC)NC1=O [compound 77] ({CH2CO}-AT[NMePhe(3-Cl)]V[X2]NYY(Carboxymethyl)IIQR[Phe(3-COOH)][NMeY]C[PEG4]-NH2; thioether N-15) | 4.46 |  | 
2 | CC[C@H](C)[C@@H]1NC(=O)[C@H](Cc2ccc(OCC(=O)O)cc2)NC(=O)[C@H](Cc2c(F)cc(O)cc2F)NC(=O)[C@H](CC(N)=O)NC(=O)[C@H](Cc2cn(CC(=O)O)c3ccccc23)NC(=O)[C@H](C(C)C)NC(=O)[C@H](Cc2cccc(Cl)c2)N(C)C(=O)[C@H](C(C)C)NC(=O)[C@H](C)NC(=O)CSC[C@@H](C(=O)NCCOCCOCCOCCOCCC(N)=O)NC(=O)[C@H](Cc2ccc(O)cc2)N(C)C(=O)[C@H](Cc2cccc(C(=O)O)c2)NC(=O)[C@H](CCCNC(=N)N)NC(=O)[C@H](CCC(N)=O)NC(=O)[C@H]([C@@H](C)CC)NC1=O [compound 78] ({CH2CO}-AV[NMePhe(3-Cl)]V[Trp(1-CH2COOH)]N[Tyr(2,6-F2)]Y(Carboxymethyl)IIQR[Phe(3-COOH)][NMeY]C[PEG4]-NH2; thioether N-15) | 4.38 |  | 
3 | CC[C@H](C)[C@@H]1NC(=O)[C@H](Cc2ccc(OCC(=O)O)cc2)NC(=O)[C@H](Cc2ccc(O)cc2)NC(=O)[C@H](CC(N)=O)NC(=O)[C@H](Cc2cn(C)c3ccccc23)NC(=O)[C@H](C(C)C)NC(=O)[C@H](Cc2cccc(Cl)c2)N(C)C(=O)[C@H](C(C)C)NC(=O)[C@H](C)NC(=O)CSC[C@@H](C(=O)NCCOCCOCCOCCOCCC(N)=O)NC(=O)[C@H](Cc2ccc(O)cc2)N(C)C(=O)[C@H](Cc2cccc(C(=O)O)c2)NC(=O)[C@H](CCCNC(=N)N)NC(=O)[C@H](CCC(N)=O)NC(=O)[C@H]([C@@H](C)CC)NC1=O [compound 79] ({CH2CO}-AV[NMePhe(3-Cl)]V[Trp(1-Me)]NYY(Carboxymethyl)IIQR[Phe(3-COOH)][NMeY]C[PEG4]-NH2; thioether N-15) | 5.31 |  | 
4 | CC[C@H](C)[C@@H]1NC(=O)[C@H](Cc2ccc(OC)cc2)NC(=O)[C@H](Cc2ccc(O)cc2)NC(=O)[C@H](CC(N)=O)NC(=O)[C@H](Cc2c[nH]c3ccccc23)NC(=O)[C@H](C(C)C)NC(=O)[C@H](Cc2cccc(Cl)c2)N(C)C(=O)[C@H](C(C)C)NC(=O)[C@H](C)NC(=O)CSC[C@@H](C(=O)NCCOCCOCCOCCOCCC(N)=O)NC(=O)[C@H](Cc2ccc(C(=O)O)cc2)N(C)C(=O)[C@H](Cc2cccc(C(=O)O)c2)NC(=O)[C@H](CCCNC(=N)N)NC(=O)[C@H](CCC(N)=O)NC(=O)[C@H]([C@@H](C)CC)NC1=O [compound 80] ({CH2CO}-AV[NMePhe(3-Cl)]VWNYY(Me)IIQR[Phe(3-COOH)][NMePhe(4-COOH)]C[PEG4]-NH2; thioether N-15) | 22.20 |  | 
5 | CC[C@H](C)[C@@H]1NC(=O)[C@H](Cc2ccc(OC)cc2)NC(=O)[C@H](Cc2ccc(O)cc2)NC(=O)[C@H](CC(N)=O)NC(=O)[C@H](Cc2c[nH]c3ccccc23)NC(=O)[C@H](C(C)C)NC(=O)[C@H](Cc2cccc(Cl)c2)N(C)C(=O)[C@H](C(C)C)NC(=O)[C@H](C)NC(=O)CSC[C@@H](C(=O)NCCOCCOCCOCCOCCC(N)=O)NC(=O)[C@H](Cc2cccc(C(=O)O)c2)N(C)C(=O)[C@H](Cc2cccc(C(=O)O)c2)NC(=O)[C@H](CCCNC(=N)N)NC(=O)[C@H](CCC(N)=O)NC(=O)[C@H]([C@@H](C)CC)NC1=O [compound 81] ({CH2CO}-AV[NMePhe(3-Cl)]VWNYY(Me)IIQR[Phe(3-COOH)][X7]C[PEG4]-NH2; thioether N-15) | 13.49 |  | 
6 | CC[C@H](C)[C@@H]1NC(=O)[C@H](Cc2ccc(OC)cc2)NC(=O)[C@H](Cc2ccc(N)nc2)NC(=O)[C@H](CC(N)=O)NC(=O)[C@H](Cc2c[nH]c3ccccc23)NC(=O)[C@H](C(C)C)NC(=O)[C@H](Cc2cccc(Cl)c2)N(C)C(=O)[C@H](C(C)C)NC(=O)[C@H](C)NC(=O)CSC[C@@H](C(=O)NCC(=O)NCC(=O)NCC(=O)NCC(=O)N[C@@H](CO)C(=O)N[C@@H](CO)C(=O)N[C@@H](CCCCN=[N+]=[N-])C(N)=O)NC(=O)[C@H](Cc2ccc(O)cc2)N(C)C(=O)[C@H](Cc2ccncc2)NC(=O)[C@H](CCCNC(=N)N)NC(=O)[C@H](CCCNC(=N)N)NC(=O)[C@H]([C@@H](C)CC)NC1=O [compound 191] |  | 0.00089 | 0.00382
7 | CC[C@H](C)[C@@H]1NC(=O)[C@H](Cc2ccc(OC)cc2)NC(=O)[C@H](Cc2ccc(N)nc2)NC(=O)[C@H](CC(N)=O)NC(=O)[C@H](Cc2c[nH]c3ncccc23)NC(=O)[C@H](C(C)C)NC(=O)[C@H](Cc2cccc(Cl)c2)N(C)C(=O)[C@H](C(C)C)NC(=O)[C@H](C)NC(=O)CSC[C@@H](C(=O)NCC(=O)NCC(=O)NCC(=O)NCC(=O)N[C@@H](CO)C(=O)N[C@@H](CO)C(=O)N[C@@H](CCCCN=[N+]=[N-])C(N)=O)NC(=O)[C@H](Cc2ccc(O)cc2)N(C)C(=O)[C@H](Cc2ccncc2)NC(=O)[C@H](CCCCN2CCOCC2)NC(=O)[C@H](CCCCN2CCOCC2)NC(=O)[C@H]([C@@H](C)CC)NC1=O [compound 192] |  | 0.00149 | 0.0105

Second part, the molecule after the results:

Row | dependency koff pH6.0/7.4 [1] | Kd [2] [µM] | Kd [3] [µM] | Structure (SMILES)
8 |  | 0.0812 | 0.384 | CC[C@H](C)[C@@H]1NC(=O)[C@H](Cc2ccc(OC)cc2)NC(=O)[C@H](Cc2ccc(N)nc2)NC(=O)[C@H](CC(N)=O)NC(=O)[C@H](Cc2cnc3ccccn23)NC(=O)[C@H](C(C)C)NC(=O)[C@H](Cc2ccccc2)N(C)C(=O)[C@H](C(C)C)NC(=O)[C@H](C)NC(=O)CSC[C@@H](C(=O)NCC(=O)N[C@@H](CCCCN=[N+]=[N-])C(N)=O)NC(=O)[C@H](Cc2ccc(C(=O)O)cc2)N(C)C(=O)[C@H](Cc2ccncc2)NC(=O)[C@H](CCCNC(=N)N)NC(=O)[C@H](CCCNC(=N)N)NC(=O)[C@H]([C@@H](C)CC)NC1=O [compound 189] ({CH2CO}-AV[NMeF]V[Ala(imidazo(1,2-a)pyr3yl)]N[3Pal(6-NH2)]Y(Me)IIRR[4Pal][NMePhe(4-COOH)]CG[Lys(N3)]-NH2; thioether N-15)
9 |  | 0.0571 | 0.177 | CC[C@H](C)[C@@H]1NC(=O)[C@H](Cc2ccc(OC)cc2)NC(=O)[C@H](Cc2ccc(N)nc2)NC(=O)[C@H](CC(N)=O)NC(=O)[C@H](Cc2cnc3ccccn23)NC(=O)[C@H](C(C)C)NC(=O)[C@H](Cc2ccccc2)N(C)C(=O)[C@H](C(C)C)NC(=O)[C@H](C)NC(=O)CSC[C@@H](C(=O)NCC(=O)N[C@@H](CCCCN=[N+]=[N-])C(N)=O)NC(=O)[C@H](Cc2ccc(O)cc2)N(C)C(=O)[C@H](Cc2ccncc2)NC(=O)[C@H](CCCNC(=N)N)NC(=O)[C@H](CCCNC(=N)N)NC(=O)[C@H]([C@@H](C)CC)NC1=O [compound 190] ({CH2CO}-AV[NMeF]V[Ala(imidazo(1,2-a)pyr3yl)]N[3Pal(6-NH2)]Y(Me)IIRR[4Pal][NMeY]CG[Lys(N3)]-NH2; thioether N-15)
10 |  | 0.00462 | 0.0149 | CCC(CC)[C@@H]1NC(=O)[C@H](Cc2ccc(O)cc2)NC(=O)[C@H](Cc2ccc(O)cc2)NC(=O)[C@H](CC(N)=O)NC(=O)[C@H](Cc2c[nH]c3ccccc23)N(C)C(=O)[C@H](C(C)C)NC(=O)[C@H](Cc2ccccc2)N(C)C(=O)[C@H](C(C)C)NC(=O)[C@H](C)NC(=O)CSC[C@@H](C(=O)NCC(=O)N[C@@H](CCCCN=[N+]=[N-])C(N)=O)NC(=O)[C@H](Cc2ccc(C(=O)O)cc2)N(C)C(=O)[C@H](Cc2cccc(C(=O)NCCOCCOCCOCCOCCC(=O)O)c2)NC(=O)[C@H](CCCNC(=N)N)NC(=O)[C@H](CCCCN)NC(=O)[C@H]([C@@H](C)CC)NC1=O [compound 194] ({CH2CO}-AV[NMeF]V[NMeW]NYY[Nva(3-Et)]IKR[X1](PEG4)[NMePhe(4-COOH)]CG[Lys(N3)]-NH2; thioether N-15)
11 |  | 0.00294 | 0.0139 | CC[C@H](C)[C@@H]1NC(=O)[C@H](Cc2ccc(O)cc2)NC(=O)[C@H](Cc2ccc(N)nc2)NC(=O)[C@H](CC(N)=O)NC(=O)[C@H](Cc2c[nH]c3ccccc23)N(C)C(=O)[C@H](C(C)C)NC(=O)[C@H](Cc2ccccc2)N(C)C(=O)[C@H](C(C)C)NC(=O)[C@H](C)NC(=O)CSC[C@@H](C(=O)NCC(=O)N[C@@H](CCCCN=[N+]=[N-])C(N)=O)NC(=O)[C@H](Cc2ccc(C(=O)O)cc2)N(C)C(=O)[C@H](Cc2ccc(O)cc2)NC(=O)[C@H](CCCNC(=N)N)NC(=O)[C@H](CCCCN)NC(=O)[C@H]([C@@H](C)CC)NC1=O [compound 196] ({CH2CO}-AV[NMeF]V[NMeW]N[3Pal(6-NH2)]YIIKRY[NMePhe(4-COOH)]CG[Lys(N3)]-NH2; thioether N-15)
12 |  | 0.00509 | 0.0439 | CC[C@H](C)[C@@H]1NC(=O)[C@H](Cc2ccc(OC)cc2)NC(=O)[C@H](Cc2ccc(N)nc2)NC(=O)[C@H](CC(N)=O)NC(=O)[C@H](Cc2cnc3ccccn23)NC(=O)[C@H](C(C)C)NC(=O)[C@H](Cc2cccc(Cl)c2)N(C)C(=O)[C@H](C(C)C)NC(=O)[C@H](C)NC(=O)CSC[C@@H](C(=O)NCC(=O)N[C@@H](CCCCN=[N+]=[N-])C(N)=O)NC(=O)[C@H](Cc2ccc(O)cc2)N(C)C(=O)[C@H](Cc2ccncc2)NC(=O)[C@H](CCCNC(=N)N)NC(=O)[C@H](CCCNC(=N)N)NC(=O)[C@H]([C@@H](C)CC)NC1=O [compound 197] ({CH2CO}-AV[NMePhe(3-Cl)]V[Ala(imidazo(1,2-a)pyr3yl)]N[3Pal(6-NH2)]Y(Me)IIRR[4Pal][NMeY]CG[Lys(N3)]-NH2; thioether N-15)
